Experimental data from patent EP0483631A1, “3-Oxy substituted isoxazolines, process for their preparation and their utilization against Endoparasites” (BAYER AG, priority 1990, dated 1992).

Key:
[1] = system: Trichostrongylus colubriformis; assay: In vivo nematode test, Trichostrongylus colubriformis / sheep (faecal egg count before and after treatment); parameters: species or system Schaf; conditions: experimentally infected sheep, treated after the prepatent period, pure active ingredient in gelatine capsules, oral, dose giving complete cessation of egg excretion, read-out: Dosis effectiva
Description: Trichostrongylus colubriformis / Schaf
Experimentell mit Trichostrongylus colubriformis infizierte Schafe wurden nach Ablauf der Präpatenzzeit des Parasiten behandelt. Die Wirkstoffe wurden als reiner Wirkstoff in Gelatinekapseln oral appliziert.
Der Wirkungsgrad wird dadurch bestimmt, daß man die mit dem Kot ausgeschiedenen Wurmeier vor und nach der Behandlung quantitativ auszählt.
(§1) Ein völliges Sistieren der Eiausscheidung nach der Behandlung bedeutet, daß die Würmer abgetrieben wurden oder so geschädigt sind, daß sie keine Eier mehr produzieren (Dosis effectiva).
Geprüfte Wirkstoffe und wirksame Dosierungen (Dosis effectiva) sind aus der nachfolgenden Tabelle ersichtlich.

Haemonchus contortus = assay: In vivo nematode test, Haemonchus contortus / sheep (faecal count before and after treatment); parameters: species or system Schaf; conditions: experimentally infected sheep, treated after the prepatent period, pure active ingredient in gelatine capsules, oral, dose giving complete cessation of egg excretion, read-out: Dosis effectiva
Description: Haemonchus contortus / Schaf
Experimentell mit Haemonchus contortus infizierte Schafe wurden nach Ablauf der Präpatenzzeit des Parasiten behandelt. Die Wirkstoffe wurden als reiner Wirkstoff in Gelatinekapseln oral appliziert.
Der Wirkungsgrad wird dadurch bestimmt, daß man die mit dem Kot ausgeschiedenen […] vor und nach der Behandlung quantitativ auszählt.
as §1
Geprüfte Wirkstoffe und wirksame Dosierungen (Dosis effectiva) sind aus der nachfolgenden Tabelle ersichtlich: […]

| SMILES | minimal effective dose [1] [mg/kg] | minimal effective dose (Haemonchus contortus) [mg/kg] |
| --- | --- | --- |
| COC1=NOC[C@H]1NC(=O)c1ccccc1C(=O)O [Beispiel 1, (R)-N-(4,5-Dihydro-3-methoxy-4-isoazolyl)-phthalamidsäure] | 25 | 10 |
| O=C(O)c1ccccc1C(=O)N[C@@H]1CON=C1OCc1cccc(Cl)c1 [Beispiel 2, (R)-N-[4-5-Dihydro-3-(-3-chlorphenyl)-methoxy-4-isoxazolyl]-phthalamidsäure] | 25 | 10 |
| CC(C)OC1=NOCC1NC(=O)c1ccccc1C(=O)O (stereo not drawn) [Beispiel 3] | 25 | 10 |
